These results are taken from patent US8455532B2, “Pyrazolyl acrylonitrile compounds and uses thereof” (Shenyang Research Institute of Chemical Industry Co., Ltd., priority 2009, dated 2013).

Where two headings read alike, the source gives them in different places.

For data set [1], the system named is adult spider mites (Tetranychus cinnabarinus). The data set is described as follows: Test against adult spider mite, spray on bean leaves, mortality after 72 h. Format: in vivo. Conditions: for mortality at 0.63 ppm / mortality at 1.25 ppm / mortality at 2.5 ppm / mortality at 5 ppm / mortality at 10 ppm: Tetranychus cinnabarinus, read-out: Acaricidal activity against adult spider mites (mortality, %). As to the method: (§1) According to the solubility of test compounds, the compounds are dissolved in acetone or dimethyl sulfoxide, and then diluted with 0.1% aqueous solution of Tween 80 to form 50 ml test liquid, the content of acetone or dimethyl sulfoxide in the total solution is not more than 10%.
The adult spider mites (Tetranychus cinnabarinus) were put into two true leaves of bean plants. After the number of mites were investigated, the solution of certain concentrations of test compounds was sprayed using a sprinkler and repeated three times. Then the leaves were maintained in standard observation room. After 72 h the survival mites in each leaf were observed, and mortality of the mites was determined.
According to above method, the representative compounds of this invention, compound KC, (compound 30 in JP2003201280A, E configuration), KC2 (compound 31 in JP2003201280A, Z configuration) and KC3 (compound 24 in CN101367784A) were chosen to parallel activity test against adult spider mites.

The test system of data set [2] is deutonymph of spider mite (Tetranychus cinnabarinus). The data set is described as follows: Test against deutonymph of spider mite, spray, mortality after 72 h. Particulars: read-out: Acaricidal activity against deutonymph of spider mites (mortality, %). Type of data set: in vivo. The method, then:
as §1
Ten healthy female adult spider mites (Tetranychus cinnabarinus) were put into two true leaves of bean plants. The adult spider mites were removed after 24 h and the eggs were continued incubating. After ten days, the number of deutonymph were investigated and recorded. The solution of certain concentrations of test compounds was sprayed using a sprinkler and repeated three times. Then the deutonymph of spider mites were maintained in standard observation room. After 72 h, the survival mites in each leaf were observed, and mortality of the mites was determined.
According to above method, high acaricidal compound 5.1, 90.1 in present invention, and known high acaricidal compound KC1 were chosen to parallel activity test against deutonymph of spider mite.

The next data set concerns spider mites. Briefly: Test of systemic activity against spider mite through root absorbtion. Type of data set: in vivo. Particulars: root dip 24 h, 72 h after infestation. The method, then:
The test compounds are dissolved in acetone, and then diluted with 0.1% aqueous solution of Tween 80 to form test solution in different concentration and every treatment was repeated three times. Water is blank control. The 10 mL test compound solution was added into the tube. Two true leaves bean plants were taken and the soil in the root was removed. The bean plant was dipped into the test solution in different concentration. After absorbing 24 h, 30 to 50 spider mites were put onto the true leaves. Then the bean plants were maintained in observation room at 25±1° C. After 72 h, the death and survival mites in each leaf was observed, the mortality of the mites and systemic activity was determined.

The subject of data set [3] is egg of spider mite (Tetranychus cinnabarinus). The data set is described as follows: Test against egg of spider mite, spray, incubation inhibition. Type of data set: in vivo. Particulars: read-out: Acaricidal activity against eggs of spider mites (incubation inhibition rate, %). The method, then:
as §1
Two true leaves of bean plants were taken and one true leaf was removed. Then ten healthy female adult spider mites were put into the true leaf. The adult spider mites were removed after 24 h and the eggs were investigated. The solution of certain concentrations of test compounds was sprayed using a sprinkler and repeated three times. The untreated eggs were all incubated after 5 days. The unincubation of treated eggs in leaf were observed, and incubation inhibition rate of the eggs were determined.
According to the above method, high acaricidal compound 5.1, 90.1 in present invention, and known high acaricidal compound KC1 were chosen to parallel activity test against eggs of spider mites.

For data set [4] the following is noted: in JP2003206280A; cited from earlier work.
Data set [5] relates to peach aphid (Myzus peisicae Sulzer). Briefly: Test against peach aphid, spray on cabbage leaves, mortality after 72 h. Format: in vivo. The method, then:
as §1
The cabbage leaves with peach aphids were taken and after the number of peach aphids were investigated, the solution of certain concentrations of test compounds was sprayed using a sprinkler and repeated three times. Then the leaves were maintained in standard observation room. After 72 h, the survival peach aphids were observed, and mortality of the peach aphids was determined.

A further data set has as its system spider mite. Conditions: 400 ppm, in CN101367784A; cited from earlier work.

As for `CCn1nc(C)c(C)c1C(OC(=O)C1CC1)=C(C#N)c1ccc(C(C)(C)C)cc1` [Compound 44.2], the mortality at 0.63 ppm in data set [1] (0.63 ppm, spray) amounted to 65%. Moreover, the mortality at 1.25 ppm in data set [1] (1.25 ppm, spray) worked out at 97%. Besides, the mortality at 2.5 ppm in data set [1] (2.5 ppm, spray) was determined as 100%. The mortality at 5 ppm in data set [1] (5 ppm, spray) came out at 100%. The mortality at 10 ppm in data set [1] (10 ppm, spray) amounted to 100%.
Regarding `CCn1nc(C)c(C)c1C(O)=C(C#N)c1ccc(C(C)(C)C)cc1` [Compound 39, 3-(1-ethyl-3,4-dimethylpyrazol-5-yl)-2-(4-tertbutylphenyl)-3-hydroxyl-acrylonitrile], the melting point was 86 to 88 °C.
As for `CCn1nc(C)c(Cl)c1C(OC(=O)C(C)(C)C)=C(C#N)c1ccc(C(C)(C)C)cc1` [Compound 90.1], in data set [2] (0.16 ppm, spray), the mortality at 0.16 ppm turned out to be 82%. In addition, the mortality at 0.63 ppm in data set [2] (0.63 ppm, spray) amounted to 90%. Besides, the mortality at 2.5 ppm came out at 100% in data set [2] (2.5 ppm, spray) and 100% in data set [1] (2.5 ppm, spray). Also, the results for the “Systemic activity against spider mites through root absorbtion (mortality, %)” value (“Systemic activity … (mortality, %)” below) with spider mites (50 ppm), with spider mites (100 ppm) and with spider mites (200 ppm) were 66%, 98% and 100%, respectively. In addition, the “Acaricidal activity against adult spider mites (mortality, %)” value (“Acaricidal activity … (mortality, %)” below) in data set [1] (0.63 ppm, spray) stood at 55%. In addition, in data set [1] (1.25 ppm, spray), the mortality at 1.25 ppm was 100%. In data set [1] (5 ppm, spray), the mortality at 5 ppm was found to be 100%. Besides, in data set [1] (10 ppm, spray), the mortality at 10 ppm is 100%. For the same compound, the inhibition at 2.5 ppm in data set [3] stood at 73%. In addition, the inhibition at 5 ppm in data set [3] amounted to 100%. Besides, the inhibition at 10 ppm in data set [3] came to 100%.
For `Cc1nn(C)c(/C(OC(=O)C(C)(C)C)=C(/C#N)c2ccc(C(C)(C)C)cc2)c1C` [KC2, reference compound], in data set [1], the mortality at 1.25 ppm came out at 0%, the mortality at 2.5 ppm turned out to be 55%, the mortality at 5 ppm turned out to be 100% and the mortality at 10 ppm worked out at 100%.
Regarding `CCn1nc(C)c(C)c1C(OC(=O)C(C)(C)C)=C(C#N)c1ccc(C(C)(C)C)cc1` [Compound 42.1], the “Acaricidal activity … (mortality, %)” value in data set [1] (0.63 ppm, spray) came to 20%; in data set [1] (1.25 ppm, spray) it was 93%. For the same compound, the mortality at 2.5 ppm in data set [1] (2.5 ppm, spray) was 100%. In addition, the mortality at 5 ppm in data set [1] (5 ppm, spray) came out at 100%. Besides, in data set [1] (10 ppm, spray), the mortality at 10 ppm was 100%.
Turning to `CCn1nc(C)c(C)c1C(OC(=O)C1CCC1)=C(C#N)c1ccc(C(C)(C)C)cc1` [Compound 50.1], the mortality at 0.63 ppm in data set [1] (0.63 ppm, spray) amounted to 93%. In data set [1] (1.25 ppm, spray), the mortality at 1.25 ppm was 100%. Also, in data set [1] (2.5 ppm, spray), the mortality at 2.5 ppm stood at 100%. The mortality at 5 ppm in data set [1] (5 ppm, spray) came out at 100%. Besides, the mortality at 10 ppm in data set [1] (10 ppm, spray) was found to be 100%.
Regarding `CCn1nc(C)c(C)c1C(OC(=O)C(C)(C)C)=C(C#N)c1ccc(C(C)(C)C)cc1` [Compound 42.2], the “Acaricidal activity … (mortality, %)” value stood at 51% in data set [1] (0.63 ppm, spray); 70% in data set [1] (1.25 ppm, spray); 100% in data set [1] (2.5 ppm, spray); 100% in data set [1] (5 ppm, spray); 100% in data set [1] (10 ppm, spray).
Consider `CCn1nc(C)cc1C(OC(=O)C(C)(C)C)=C(C#N)c1ccc(C(C)(C)C)cc1` [Compound 5.2], for which the “Acaricidal activity … (mortality, %)” value is recorded as 56% in data set [1] (0.63 ppm, spray); 65% in data set [1] (1.25 ppm, spray); 87% in data set [1] (2.5 ppm, spray); 100% in data set [1] (5 ppm, spray); 100% in data set [1] (10 ppm, spray).
Turning to `CCn1nc(C)cc1C(OC(=O)C(C)(C)C)=C(C#N)c1ccc(C(C)(C)C)cc1` [Compound 5.1], the mortality at 0.16 ppm in data set [2] (0.16 ppm, spray) was 94%. Further, the mortality at 0.63 ppm in data set [2] (0.63 ppm, spray) was found to be 100%; in data set [1] (0.63 ppm, spray), 42%. Moreover, the mortality at 2.5 ppm in data set [2] (2.5 ppm, spray) was 100%; in data set [1] (2.5 ppm, spray), 100%. Besides, in data set [1] (1.25 ppm, spray), the “Acaricidal activity … (mortality, %)” value worked out at 98%. The mortality at 5 ppm in data set [1] (5 ppm, spray) worked out at 100%. Besides, in data set [1] (10 ppm, spray), the mortality at 10 ppm stood at 100%. Further, in data set [3], the inhibition at 2.5 ppm came out at 66%. Also, in data set [3], the inhibition at 5 ppm worked out at 100%. Besides, in data set [3], the inhibition at 10 ppm turned out to be 100%.
`Cc1nn(C)c(/C(OC(=O)C(C)(C)C)=C(\C#N)c2ccc(C(C)(C)C)cc2)c1C` [KC1, cyenopyrafen, reference compound]: in data set [2], the mortality at 0.16 ppm stood at 20%, the mortality at 0.63 ppm was 70% and the mortality at 2.5 ppm is 82%. In addition, the “Systemic activity … (mortality, %)” value in the data set with spider mites (50 ppm) worked out at 0%. The “Systemic activity … (mortality, %)” value in the data set on spider mites (100 ppm) is 0%. In addition, in the data set with spider mites (200 ppm), the “Systemic activity … (mortality, %)” value came to 0%. In data set [1], the mortality at 1.25 ppm is 30%, the mortality at 2.5 ppm is 85%, the mortality at 5 ppm was found to be 100% and the mortality at 10 ppm is 100%. In data set [4], the “insecticidal and acaricidal activity” value was “good insecticidal and acaricidal activity”. Moreover, in data set [3], the inhibition at 2.5 ppm was 7%, the inhibition at 5 ppm is 84% and the inhibition at 10 ppm came to 100%.
Turning to `CCn1nc(C)cc1C(O)=C(C#N)c1ccc(C(C)(C)C)cc1` [Compound 1, 3-(1-ethyl-3-methylpyrazol-5-yl)-2-(4-tertbutylphenyl)-3-hydroxy-acrylonitrile], the melting point was 70 to 72 °C.
`CCOC(=O)OC(=C(C#N)c1ccc(C(C)(C)C)cc1)c1cc(C)nn1CC` [Compound 17.1] registered a melting point of 96 to 97 °C.
As to `CCn1nc(C)c(F)c1C(O)=C(C#N)c1ccc(C(C)(C)C)cc1` [Compound 81, 3-(1-ethyl-4-fluoro-3-methylpyrazol-5-yl)-2-(4-tertbutylphenyl)-3-hydroxy-acrylonitrile], in data set [5], the mortality at 600 ppm was determined as 60%.
On to `CCc1nn(C)c(/C(OC(C)=O)=C(\C#N)c2ccc(C(C)(C)C)cc2)c1Cl` [KC3, reference compound], for which, in data set [1], the mortality at 10 ppm stood at 5%. For the same compound, the “mortality against spider mite” value in the data set with spider mite is “more than 80%”.
With `CCOC(=O)OC(=C(C#N)c1ccc(C(C)(C)C)cc1)c1c(Cl)c(C)nn1CC` [Compound 101.1], the mortality at 1.25 ppm in data set [1] (1.25 ppm, spray) was found to be 50%. Also, the mortality at 2.5 ppm in data set [1] (2.5 ppm, spray) was 91%. For the same compound, the mortality at 5 ppm in data set [1] (5 ppm, spray) turned out to be 100%. Further, in data set [1] (10 ppm, spray), the mortality at 10 ppm was 100%.
Regarding `CCn1nc(C)c(Cl)c1C(OC(=O)C(C)(C)C)=C(C#N)c1ccc(C(C)(C)C)cc1` [Compound 90.2], the “Acaricidal activity … (mortality, %)” value was determined as 28% in data set [1] (0.63 ppm, spray); 100% in data set [1] (1.25 ppm, spray); 100% in data set [1] (2.5 ppm, spray); 100% in data set [1] (5 ppm, spray); 100% in data set [1] (10 ppm, spray).
On to `CCOC(=O)OC(=C(C#N)c1ccc(C(C)(C)C)cc1)c1c(C)c(C)nn1CC` [Compound 54.1], for which, in data set [1] (1.25 ppm, spray), the mortality at 1.25 ppm was 100%. Moreover, the mortality at 2.5 ppm in data set [1] (2.5 ppm, spray) was 100%. In addition, in data set [1] (5 ppm, spray), the mortality at 5 ppm is 100%. For the same compound, the mortality at 10 ppm in data set [1] (10 ppm, spray) amounted to 100%.

The mortality is the share of the test organisms that died. Broadly, the melting point is the temperature, or range, at which the solid turns liquid. A word on the inhibition: it is the drop in the measured response relative to a control, in per cent.
